The values that follow come from US11389415B2, “Methods of regulating cannabinoid receptor activity-related disorders and diseases” (The United States of America as represented by the …, priority 2012, dated 2022).

What all share (format): cell-based, human
Assay [1] concerns HepG2 cells. Put plainly: [3H]-Thymidine incorporation assay in HepG2 cells. How it is done:
(§1) Maintenance and Treatment of Cell Lines. Human HepG2 hepatocarcinoma cells and human U87MG glioma cells (ATCC, Manassas, Va.) were maintained in EMEM medium supplemented with 1% L-glutamine, 1% sodium pyruvate, 1% penicillin/streptomycin, and 10% FBS (Hyclone, Logan, Utah). The human 1321N1 astrocytoma cells (European Collection of Cell Cultures, Sigma-Aldrich) were cultured in Dulbecco's modified Eagle's medium supplemented with 10% FBS and penicillin/streptomycin. All cell lines were cultured at 37° C. in 5% CO2, and the medium was replaced every 2-3 days.
(§2) Cells were seeded in 12-well plates at approximately 50,000 cells/well and incubated at 37° C. After 24 hours, the wells were rinsed with PBS and replaced with serum-free medium containing the appropriate concentration of the test compounds. After another 24-hour incubation at 37° C., 1 μCi of [^3H]-thymidine was added to each well and incubated at 37° C. for 16 hours. [^3H]-Thymidine incorporation into DNA was monitored after the cells were washed twice with PBS and then lysed in 600 μL of 0.1N NaOH for 30 minutes with shaking. The lysate was then mixed with 3 mL of liquid scintillation cocktail (Beckman Coulter, Inc., Brea, Calif.), and radioactivity was measured by liquid scintillation counting using Beckman Coulter LS6000IC Scintillation Counter. Data are shown as CPM incorporated compared to the control cells.
A general note: Uptake of a labelled nucleoside into DNA is a usual measure of proliferation.

A further assay concerns 1321N1 cells. The assay is described as follows: Mitogenesis / [3H]-thymidine incorporation in 1321N1 cells. The note with it: compound alone. As to the method: as §1
as §2, with “[^3H]-Thymidine Incorporation Assay. Cells” for “Cells”

The test system of the next assay is U87MG cells. Put plainly: [3H]-Thymidine incorporation in U87MG cells. The note with it: compound alone. How it is done: as §1, §2
Assay [2] concerns HepG2 cells. The assay is described as follows: cAMP accumulation in HepG2 cells. The note with it: β-agonists at 10 μM. How it is done: cAMP Accumulation. HepG2 cells were seeded in 96-well plates and grown to confluency. […] The levels of cAMP accumulated in cells were determined and normalized to the amount of protein per well.
(In general: cAMP levels reflect the balance of adenylyl cyclase and phosphodiesterase activity.)

The test system of the next assay is Akt and ERK1/2. The assay is described as follows: phosphorylation of Akt and ERK1/2 in HepG2 cells (Western blot). The note with it: 1 μM, 5, 10 and 30 minutes.
The subject of assay [3] is HepG2 cells. Put plainly: Cell cycle analysis by flow cytometry in HepG2 cells. The note with it: HepG2, 1 μM, up to 24 hours. How it is done: Cell Cycle Analysis. Cell cycle distributions were performed by flow cytometry on propidium iodide-stained nuclei prepared by the NIM technique. DNA histograms of at least 10,000 cells acquired on a Becton-Dickinson FACScanto II (BD Biosciences, San Jose, Calif.) were deconvoluted using the Multicycle program (Phoenix Flow Systems) for estimates of the percentage of cells in the G0/1, S, and G2+M phases of the cell cycle. Debris and doublets were removed from the analysis by software algorithms.

For assay [4], the system named is HepG2 cells. The assay is described as follows: Apoptosis assay (annexin V/PI flow cytometry) in HepG2 cells. As to conditions: HepG2, 1 μM, 24 hours. How it is done:
Apoptosis Assay. The degree of apoptosis induced by drug treatment was assayed by flow cytometry using the Alexa Fluor® 488 annexin V/Dead Cell Apoptosis Kit (Invitrogen) following the standard manufacturer's protocol. […] Cells were subsequently harvested after a 24-hour incubation, washed in cold PBS, and resuspended in 100 μL of 1× annexin-binding buffer to maintain a density˜1×10^6 cells/mL, after which 5 μL Alexa Fluor® 488 annexin V and 1 μL 100 μg/mL propidium iodide were added to the cell suspensions. Cells were then incubated at room temperature for 15 minutes and 400 μL 1× annexin-binding buffer was added followed by gentle mixing. Stained cells were analyzed on a BDFACSCanto II flow cytometer.
On the technique in general: In flow cytometry, cells or beads pass a laser one at a time.

The structures appear in SMILES notation. “Also recorded” adds a separate entry of the source.

Experimental for Akt and ERK1/2: Western Blotting. Cells were lysed with RIPA buffer containing EGTA and EDTA (Boston BioProducts, Ashland, Mass.). The lysis buffer was mixed with a protease inhibitor cocktail (Sigma-Aldrich). Protein concentrations were measured using the bicinchoninic acid reagent (Thermo-Pierce Biotechnology, Inc., Rockford, Ill.). […] Western blots were performed according to standard methods. The visualization of immunoreactive bands was performed using the ECL Plus Western Blotting Detection System (GE Healthcare, NJ) and their quantification was done by volume densitometry using Image J software and normalization to β-actin. […] The antibodies were used at a dilution recommended by the manufacturer.

As to `C[C@H](Cc1ccc(O)cc1)NC[C@H](O)c1cc(O)cc(O)c1` [(R,R′)-Fen, (R,R′)-Fenoterol], in the assay on HepG2 cells [1] (1 μM, 24 h), the “% Change in HepG2 cells ([3H]-thymidine incorporation)” value turned out to be 51.3%. In the assay on HepG2 cells [1] (Homo sapiens, HepG2, read-out: IC50/EC50 (μM): EC50 (ED50) for increase in [3H]-thymidine incorporation), the EC50 was found to be 1.17 ± 0.37 µM. The “effect on proliferation / [3H]-thymidine incorporation” value in the assay with 1321N1 cells is given as “reduced proliferation in 1321N1 cells”. Also, in the assay with U87MG cells, the “effect on cellular proliferation” value was “had no effect”. For the same compound, the “cAMP production” value in the assay with HepG2 cells [2] is “Neither (R)-isoproterenol nor (R,R′)-Fen, at 10 μM, elicited an increase in cAMP production”. Moreover, the “Akt and ERK activation” value in the assay with Akt and ERK1/2 is “induced a time-dependent increase in Akt and ERK activation”. Moreover, the “cell cycle / sub-G1 events” value in the assay on HepG2 cells [3] is “no significant alterations of the cell cycle; also recorded: No significant increase in sub-G1 events”. In addition, the “apoptosis compared to control” value in the assay with HepG2 cells [4] is “markedly reduced apoptosis”.
